In paper PMC4863944, “Inhibition of Oncogenic Transcription Factor REL by the Natural Product Derivative Calafianin Monomer 101 Induces Proliferation Arrest and Apoptosis in Human B-Lymphoma Cell Lines” (Molecules, 2015):

Key:
p65 (RelA) = biological target: T1, p65 (RelA) (Homo sapiens, UniProt Q04206); test: EMSA of extracts from CM101-treated transfected […] cells; C38S mutant less inhibited; western blot of covalently modified high molecular weight forms; assay type: cell-based
T1 construct: FLAG-tagged human p65 expressed in 293 cells

REL (human c-Rel) = biological target: T2, REL (human c-Rel) (Homo sapiens, UniProt Q04864); test: EMSA of extracts from CM101-treated transfected […] cells; C27S mutant less inhibited; western blot of covalently modified high molecular weight forms; assay type: cell-based
T2 construct: FLAG-tagged human REL expressed in 293 cells
T2 sequence (Q04864 2-619): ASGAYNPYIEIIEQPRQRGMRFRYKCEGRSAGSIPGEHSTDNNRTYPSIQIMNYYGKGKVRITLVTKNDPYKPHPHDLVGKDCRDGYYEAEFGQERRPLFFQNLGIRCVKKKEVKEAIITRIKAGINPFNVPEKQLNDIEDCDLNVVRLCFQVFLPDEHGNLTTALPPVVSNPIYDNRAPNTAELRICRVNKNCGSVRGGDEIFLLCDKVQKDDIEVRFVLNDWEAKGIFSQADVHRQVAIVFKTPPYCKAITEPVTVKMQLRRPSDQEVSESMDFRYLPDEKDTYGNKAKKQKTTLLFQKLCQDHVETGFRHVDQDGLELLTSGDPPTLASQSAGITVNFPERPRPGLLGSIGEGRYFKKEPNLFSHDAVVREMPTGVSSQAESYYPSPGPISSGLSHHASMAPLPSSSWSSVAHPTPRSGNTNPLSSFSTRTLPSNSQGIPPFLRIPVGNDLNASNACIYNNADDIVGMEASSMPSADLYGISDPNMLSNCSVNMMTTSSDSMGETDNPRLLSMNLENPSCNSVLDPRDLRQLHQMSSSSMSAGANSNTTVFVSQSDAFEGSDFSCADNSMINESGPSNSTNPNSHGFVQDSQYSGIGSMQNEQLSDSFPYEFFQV

T1 sequence (Q04206 whole entry): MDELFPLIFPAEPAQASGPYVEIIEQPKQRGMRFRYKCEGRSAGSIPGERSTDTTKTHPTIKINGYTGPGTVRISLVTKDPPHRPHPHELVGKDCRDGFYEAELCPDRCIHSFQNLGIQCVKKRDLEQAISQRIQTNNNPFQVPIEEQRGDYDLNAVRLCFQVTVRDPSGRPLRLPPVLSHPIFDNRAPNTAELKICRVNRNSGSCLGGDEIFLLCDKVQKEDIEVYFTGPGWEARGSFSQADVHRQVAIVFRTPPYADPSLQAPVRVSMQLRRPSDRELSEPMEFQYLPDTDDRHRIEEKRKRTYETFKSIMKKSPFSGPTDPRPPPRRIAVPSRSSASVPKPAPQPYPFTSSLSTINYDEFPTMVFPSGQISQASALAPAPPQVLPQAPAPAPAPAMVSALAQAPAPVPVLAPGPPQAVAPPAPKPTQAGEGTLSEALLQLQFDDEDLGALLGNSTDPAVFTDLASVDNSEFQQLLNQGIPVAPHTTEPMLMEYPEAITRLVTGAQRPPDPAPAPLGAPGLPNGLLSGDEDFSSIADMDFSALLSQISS

IC50 (p65 (RelA)): ~10 µM | IC50 (REL (human c-Rel)): ~10 µM
SMILES: CCOC(=O)C1=NO[C@@]2(C=C(Br)C(=O)[C@H]3O[C@H]32)C1 (mixture of isomers) [CM101]
